Assays:
Type in all cases: cell-based, human
[1] = system: Circulating Tumour Cells (CTCs) from a patient with sex cord stromal tumour, ovarian tumour; assay: Drug response score assay on CTCs from blood, Example 4; parameters: key to Drug response score, conc. 1 / Drug response score, conc. 2 / Drug response score, conc. 3 / Drug response score, conc. 4: normalized drug response metric (Gupta et al. 2020)
Description: (§1) CD45^+ cells and circulating tumour cells (CTCs) were isolated from a blood sample provided by each subject.
(§2) CD45 separation was performed by adding human CD45 microbeads (50 μl/ml blood), incubating for 15 minutes at 4° C. and then processing using an AutoMACS machine. This separates the blood sample into CD45^+ and CD45^−cells in 2 separate falcons. The falcon tubes are then centrifuged at 1200 rpm for 5 minutes.
(§3) The supernatant was removed from the CD45^−falcon tube, and the CD45^−cells contacted with 100 μl of FcR block and 100 μl of CD326 (EpCAM) MicroBeads, followed by incubation at […] 4° C. for 30 minutes. The CD45^−cells were then processed using an AutoMACS machine to separate the EpCAM positive and negative cells into 2 separate falcon tubes. The EpCAM-cells were discarded. The supernatant was removed from the EpCAM^+ cells, and the cells resuspended in DMEM with 2 μl Cell Tox, 2 μl MT and 2 μl MT. 20 μl of the resuspended pellet was then added to all sample wells excluding a blank. After all wells are added to, a cell count was conducted on the […] to determine the number of circulating tumour cells (CTCs).
(§4) The different cell types were each divided equally into populations, depending on the number of drugs/concentrations to be tested and plated on a cell-culture plate pre-coated with a scaffold of polycaprolactone (PCL) electrospun fibres and incubated at 37° C., 5% CO2, for 5 to (typically 10) minutes to facilitate cell attachment. After attachment, an initial imaging step was carried out using the RealTime-Glo™ MT assay from Promega (Catalogue No. G9711)) and the CellTox™ Green Cytotoxicity Assay (Promega, Catalogue No. G8741), carried out according to manufacturer's instructions. Following this initial imagining, the immunotherapeutic and/or chemotherapeutic agents were added to the cell populations as indicated below. After 10 minutes, the imagining step was repeated. The cell populations were then incubated at 37° C., 5% CO2 for 48 hours. The imaging step was then repeated. The cell populations were then re-dosed with the same immunotherapeutic and/or chemotherapeutic agents as indicated below, and incubated at 37° C., 5% CO2 for a further 48 hours. After this second 48 hour incubation, the imagining step was repeated for a final time.
(§5) At the end of this culture period, dose response scores were calculated using a normalized drug response metric as described in Gupta et al. (Communications Biology volume 3, Article number: 42 (2020), https://doi.org/10.1038/s42003-020-0765-z). The start readout for a given immunotherapeutic or chemotherapeutic agent at a given concentration was the to readout for said immunotherapeutic or chemotherapeutic agent at a specified concentration. The end readout for a given immunotherapeutic or chemotherapeutic agent at a given concentration was the final timepoint reading (t96h) for said immunotherapeutic or chemotherapeutic agent at a specified concentration.
(§6) The positive control start readout for a given drug/concentration was the to readout for the corresponding drug at a specified concentration. The positive control end readout for the corresponding drug at a specified concentration was the final timepoint reading (t96h) for the corresponding blank well.
(§7) The negative control start and end readouts for a given immunotherapeutic or chemotherapeutic agent at a given concentration were the to and final timepoint reading (t96h) respectively for blank cell or blank immuno cell well respectively.
(§8) The sensitivity or resistance of a subject's cancer to a given immunotherapeutic or chemotherapeutic agent was determined based on the calculated drug response score as shown in Table 2.
Blood samples from a patient with sex cord stromal tumour, ovarian tumour (epitheliod neoplasm, stage 3 recurrence after surgery (resection) and previous chemotherapy) were received on 19 Jul. 2021 and tested using a 5 drug panel. […]

[2] = system: Circulating Tumour Cells (CTCs) from a patient with head and neck cancer (squamous cell carcinoma); assay: Drug response score assay on CTCs from blood, Example 6
Description: as §1, §2, §3, §4, §5, §6, §7, §8
Blood samples from a patient with head and neck cancer (squamous cell carcinoma) were received on 11 Mar. 2022 and tested using a 7 drug panel.

[3] = system: Circulating Tumour Cells (CTCs) from a patient with colon cancer (sigmoid colon cancer); assay: Drug response score assay on CTCs from blood, Example 8; parameters: key to Drug response score, conc. 1 / Drug response score, conc. 2 / Drug response score, conc. 3 / Drug response score, conc. 4: normalized drug response metric (Gupta et al. 2020); conditions: for Drug response score, conc. 1: conc. 1 of each drug as in Table 24; for Drug response score, conc. 1 / Drug response score, conc. 2 / Drug response score, conc. 3 / Drug response score, conc. 4: CTCs, t96h; for Drug response score, conc. 2: conc. 2 of each drug as in Table 24; for Drug response score, conc. 3: conc. 3 of each drug as in Table 24; for Drug response score, conc. 4: conc. 4 of each drug as in Table 24; for Drug sensitivity as calculated by the assay (interpretation of Drug Response Scores): sigmoid colon cancer CTCs, Table 26
Description: as §1, §2, §3
as §4, with “After” for “The different cell types were each divided equally into populations, depending on the number of drugs/concentrations to be tested and plated on a cell-culture plate pre-coated with a scaffold of polycaprolactone (PCL) electrospun fibres and incubated at 37° C., 5% CO2, for 5 to (typically 10) minutes to facilitate cell attachment. After”
as §5, §6, §7, §8
Blood samples from a patient with colon cancer (sigmoid colon cancer) were received on 8 Mar. 2022 and tested using a 9 drug panel.
Chemotherapeutic agents were tested as in Table 24.

[4] = system: Circulating Tumour Cells (CTCs, EpCam+CD45−) from a patient with stage II synovial sarcoma; assay: Drug response score assay (RealTime-Glo MT / CellTox Green, PCL scaffold) on CTCs from blood, Example 1; parameters: key to Drug response score, conc. 1 / Drug response score, conc. 2 / Drug response score, conc. 3 / Drug response score, conc. 4: normalized drug response metric per Gupta et al. 2020; conditions: for Drug response score, conc. 1: conc. 1: Doxo 10 ng/ml, Ifos 0.125 μg/ml, Gemcit 2 μg/ml, Doce 0.02 μg/ml, Carbo 2 μg/ml, Dacarb 1.5 μg/ml, re-dosed at 48 h; for Drug response score, conc. 1 / Drug response score, conc. 2 / Drug response score, conc. 3 / Drug response score, conc. 4: CTCs, t96h; for Drug response score, conc. 2: conc. 2: Doxo 30 ng/ml, Ifos 0.25 μg/ml, Gemcit 10 μg/ml, Doce 0.2 μg/ml, Carbo 5 μg/ml, Dacarb 3 μg/ml; for Drug response score, conc. 3: conc. 3: Doxo 90 ng/ml, Ifos 5 μg/ml, Gemcit 20 μg/ml, Doce 2 μg/ml, Carbo 10 μg/ml, Dacarb 6 μg/ml; for Drug response score, conc. 4: conc. 4: Doxo 270 ng/ml, Ifos 10 μg/ml, Gemcit 40 μg/ml, Doce 10 μg/ml, Carbo 20 μg/ml, Dacarb 12 μg/ml
Description: as §1, §2, §3, §4, §5, §6, §7, §8
Blood samples from a patient with stage II synovial sarcoma (suspected spindle cell tumour) were received and tested using a 6 drug panel.
Chemotherapeutic agents were tested as in Table 3.

[5] = system: Circulating Tumour Cells (CTCs) from a patient with renal cancer; assay: Drug response score assay on CTCs (with CD45+ cells for immunotherapy) from blood, Example 7; parameters: key to Drug response score, conc. 1 / Drug response score, conc. 2 / Drug response score, conc. 3 / Drug response score, conc. 4: normalized drug response metric per Gupta et al. 2020; conditions: for Drug response score, conc. 1: conc. 1: Pembr 20 μg/ml (CTCs + CD45+ cells), Docetax 0.02 μg/ml, Gemcit 2 μg/ml, Topo 5 μg/ml, Etop 1 μg/ml, Eribul 5 μg/ml (CTCs); for Drug response score, conc. 1 / Drug response score, conc. 2 / Drug response score, conc. 3 / Drug response score, conc. 4: t96h; for Drug response score, conc. 2: conc. 2: Pembr 40 μg/ml (CTCs + CD45+ cells), Docetax 0.2 μg/ml, Gemcit 10 μg/ml, Topo 10 μg/ml, Etop 4 μg/ml, Eribul 10 μg/ml (CTCs); for Drug response score, conc. 3: conc. 3: Pembr 100 μg/ml (CTCs + CD45+ cells), Docetax 2 μg/ml, Gemcit 20 μg/ml, Topo 50 μg/ml, Etop 20 μg/ml, Eribul 20 μg/ml (CTCs); for Drug response score, conc. 4: conc. 4: Pembr 160 μg/ml (CTCs + CD45+ cells), Docetax 10 μg/ml, Gemcit 40 μg/ml, Topo 100 μg/ml, Etop 100 μg/ml, Eribul 40 μg/ml (CTCs); for Drug sensitivity as calculated by the assay (interpretation of Drug Response Scores): Table 23
Description: as §1, §2
The supernatant was removed from the CD45^+falcon tube, and the cells resuspended in DMEM with 2 μl Cell Tox, 2 μl MT and 2 μl MT. 20 μl of the resuspended CD45^+ cells was then plated in each well which will contain an immunotherapy treatment.
as §3, §4, §5, §6, §7
The sensitivity or resistance of a subject's cancer to a given immunotherapeutic or chemotherapeutic agent was determined based on the calculated drug response score as shown in Table 2. […]

Row | Compound | Drug response score, conc. 1 [3] | Drug response score, conc. 2 [3] | Drug response score, conc. 3 [3] | Drug response score, conc. 4 [3] | Drug sensitivity as calculated by the assay (interpretation of Drug Response Scores) [3] | Drug response score, conc. 1 [4] | Drug response score, conc. 2 [4] | Drug response score, conc. 3 [4] | Drug response score, conc. 4 [4] | Drug response score, conc. 1 [5] | Drug response score, conc. 2 [5] | Drug response score, conc. 3 [5] | Drug response score, conc. 4 [5] | Drug sensitivity as calculated by the assay (interpretation of Drug Response Scores) ([5]; renal cancer CTCs) | further results
1 | Cn1cnc2c(F)c(Nc3ccc(Br)cc3F)c(C(=O)NOCCO)cc21 [Binimetinib] | – | – | – | – | – | – | – | – | – | – | – | – | – | – | Drug response score, conc. 1 ([1]; conc. 1: Cyclo 2.5 μg/ml, Vinc 10 ng/ml, Etop 1 μg/ml, Bini 100 ng/ml, Doxo 10 ng/ml, CTCs, t96h): 0.93; Drug response score, conc. 2 ([1]; conc. 2: Cyclo 10 μg/ml, Vinc 20 ng/ml, Etop 4 μg/ml, Bini 200 ng/ml, Doxo 30 ng/ml, CTCs, t96h): 1.18; Drug response score, conc. 3 ([1]; conc. 3: Cyclo 40 μg/ml, Vinc 40 ng/ml, Etop 20 μg/ml, Bini 400 ng/ml, Doxo 90 ng/ml, CTCs, t96h): 1.19; Drug response score, conc. 4 ([1]; conc. 4: Cyclo 160 μg/ml, Vinc 80 ng/ml, Etop 100 μg/ml, Bini 800 ng/ml, Doxo 270 ng/ml, CTCs, t96h): 1.06; effectiveness on Circulating Tumour Cells (CTCs) under laboratory conditions ([1]; sex cord stromal / ovarian tumour CTCs): not effective; Drug sensitivity as calculated by the assay (interpretation of Drug Response Scores) ([1]; sex cord stromal / ovarian tumour CTCs, Table 14): Resistant
2 | CCCCCOC(=O)Nc1nc(=O)n([C@@H]2O[C@H](C)[C@@H](O)[C@H]2O)cc1F [Capecitabine] | – | – | – | – | – | – | – | – | – | – | – | – | – | – | Drug response score, conc. 1 ([2]; conc. 1: Ifos 0.125 μg/ml, Gemcit 2 μg/ml, Doxo 10 ng/ml, Etop 1 μg/ml, Metho 0.5 μg/ml, Capecit 200 μg/ml, Vinor 20 μg/ml, CTCs, t96h): 0.7820; Drug response score, conc. 2 ([2]; conc. 2: Ifos 0.25 μg/ml, Gemcit 10 μg/ml, Doxo 30 ng/ml, Etop 4 μg/ml, Metho 1 μg/ml, Capecit 300 μg/ml, Vinor 40 μg/ml, CTCs, t96h): 0.9244; Drug response score, conc. 3 ([2]; conc. 3: Ifos 5 μg/ml, Gemcit 20 μg/ml, Doxo 90 ng/ml, Etop 20 μg/ml, Metho 2 μg/ml, Capecit 400 μg/ml, Vinor 80 μg/ml, CTCs, t96h): 0.6113; Drug response score, conc. 4 ([2]; conc. 4: Ifos 10 μg/ml, Gemcit 40 μg/ml, Doxo 270 ng/ml, Etop 100 μg/ml, Metho 4 μg/ml, Capecit 600 μg/ml, Vinor 200 μg/ml, CTCs, t96h): 1.0037; effectiveness on Circulating Tumour Cells under laboratory conditions ([2]; head and neck cancer CTCs): not effective; Drug sensitivity as calculated by the assay (interpretation of Drug Response Scores) ([2]; head and neck cancer CTCs, Table 20): Resistant
3 | N.N.O=C([O-])C1(C(=O)[O-])CCC1.[Pt+2] [Carboplatin] | 6.6672 | −0.0506 | −0.8131 | −0.1322 | Sensitive (S++) | 1.4015 | 0.6497 | 0.4151 | 0.4317 | – | – | – | – | – | Drug sensitivity as calculated by the assay (interpretation of Drug Response Scores) ([4]; synovial sarcoma CTCs, Table 5): Sensitive (S+)
4 | CN(C)/N=N/c1[nH]cnc1C(N)=O [Dacarbazine] | – | – | – | – | – | 2.1563 | 0.0887 | 0.1691 | 0.5700 | – | – | – | – | – | –
5 | C=C1C[C@@H]2CC[C@@]34C[C@H]5O[C@H]6[C@@H](O3)[C@H]3O[C@H](CC[C@@H]3O[C@H]6[C@H]5O4)CC(=O)C[C@@H]3[C@@H](OC)[C@@H](C[C@H](O)CN)O[C@H]3C[C@H]3O[C@@H](CC[C@@H]1O2)C[C@@H](C)C3=C [Eribuline] | 4.4627 | −0.1620 | −0.0329 | −0.4785 | Sensitive (S++) | – | – | – | – | 0.4482 | 0.0692 | −0.1453 | −0.0193 | Sensitive (S+) | –
6 | CC[C@@]1(O)C(=O)OCc2c1cc1n(c2=O)Cc2cc3c(CN(C)C)c(O)ccc3nc2-1 [Topotecan] | – | – | – | – | – | – | – | – | – | 0.1847 | −0.0648 | −0.0964 | −0.1707 | Sensitive (S++) | effectiveness on Circulating Tumour Cells under laboratory conditions ([5]; renal cancer CTCs): Sensitive S++

Source: patent US20250290915A1, “METHOD FOR PREDICTING RESPONSIVENESS TO THERAPY” (CANCERTAIN LIMITED, priority 2022, published 2025)
